{"source": "patent US20250207173A1", "about": "“REPORTER CELL FOR ASSESSING DDX3 HELICASE ACTIVITY” (Nanyang Technological University, priority 2023, published 2025)", "key": {"[1]": {"test_system": "DDX3", "test": "ICD-Helicase luciferase reporter assay (Rac1-FLuc / DvL2-FLuc reporter plasmids) in 293T cells", "assay_type": "cell-based, human", "conditions": "for luciferase (luminescent) signals of Rac1-FLuc or DvL2-FLuc reporter cells: 293T cells transfected with Rac1-FLuc or DvL2-FLuc reporter plasmids, RK-33 0.5 to 2 μM vs vehicle (DMSO), cycloheximide as inhibitory control", "protocol": "A total of 1.2×10^5 sgCTL or sgDDX3X reporter cells (Rac1-FLuc or DvL2-FLuc) were seeded into wells of a 24-well plate to allow cells to adhere for 24 h. Cells were pre-treated with increasing concentrations of a non-specific DDX3 inhibitor, RK-33 (0.5 μM, 1 μM, or 2 μM) for 3 h before transiently expressing the reporter plasmids into sgCTL and sgDDX3X cells for 16 h. Half of the cells were lysed in 1× cell culture lysis buffer (Promega #E1500) and bioluminescence was measured on a white bottom 96-well plate using luciferase assay system (Promega #E4030) by performing 2 sec measurement delay followed by a 10 sec measurement read. The remaining half of the cells were processed on flow-cytometry to determine the percentage of AcGFP^+ cells, to account for variation in transfection efficiency. […] Cycloheximide was used as a positive control for translational inhibition. Data represent three independent experiments and values in the bars are mean±SEM. *, p<0.05; ****, p<0.0001; ns, non-significant.\nCell transfection: 293T cells were seeded in 12 well plate (1.5×10^5 cells per well) a day prior to transfection. Cells were transfected with 1 μg of plasmids using Lipofectamine 2000 (ThermoFisher Scientific #11668019) as per manufacturer's recommendations.\nLuciferase assay: Cells were lysed in luciferase cell culture lysis buffer (Promega #E1500) before measuring bioluminescence in a clear bottom 96-well plate using luciferase assay system (Promega #E4030) as per manufacturer's instructions. Relative luciferase activity was determined by subtracting luminescence values to blank and normalizing to untreated samples. Cycloheximide (Sigma #01810) was used as a positive control for translation inhibition at 1 μg/mL and RK-33 (Selleck #S8246) was used as a positive control for chemical inhibition of DDX3 at 3 μM.\nThe helicase function of the DDX3X and DDX3Y proteins regulates mRNA translation by unwinding of the complex 5′ untranslated region (5′-UTR) secondary structure. Two unique 5′-UTR structures were designed, Rac1 5′-UTR and DvL2 5′-UTR (i.e. short DVL2), known to be regulated by DDX3X and DDX3Y. The 5′-UTR segments were placed upstream of the luciferase gene (from the firefly Photinus pyralis) driven by a constitutively active human cytomegalovirus promoter (FIG. 1A-E). Luciferase emits bioluminescence signals proportional to its levels of expression, which served as a readout for helicase unwinding activity in ICD-Helicase assays. The reporter plasmids (Rac1-Fluc or DvL2-Fluc) were then transiently transfected into 293T cells. A transfection efficiency of more than 80% was obtained in all the experiments (FIG. 2). The selection of this cell line was for three main reasons. […] Second, 293T cells can tolerate knock-out (KO) or nearly complete knock-down of DDX3X expression. […]"}, "[2]": {"test_system": "293T cells", "test": "Annexin V-FITC apoptosis/cell death assay", "assay_type": "cell-based, human", "conditions": "RK-33 treatment", "protocol": "(§1) Staurosporine (STS) was used as a positive kill control. […] Cells were treated with STS as a kill control. Bar chart represents mean±SEM of 3 independent experiments."}, "[3]": {"test_system": "293T cells", "test": "MTS-based viability assay of reporter cells", "assay_type": "cell-based", "conditions": "293T reporter cells (sgCTL and sgDDX3X); RK-33 0.5, 1 or 2 μM; normalized against vehicle (DMSO)", "protocol": "as §1"}}, "note": "“Also recorded” adds a separate entry of the source.", "data": [{"molecule": "C[C@@H]1C[C@@H]([C@H](O)CC2CC(=O)NC(=O)C2)C(=O)[C@@H](C)C1", "note": "[cycloheximide]", "values": [{"measurement": "luciferase (luminescent) signals of Rac1-FLuc or DvL2-FLuc reporter cells", "setting": "[1]", "value": "significantly inhibited"}]}, {"molecule": "RK-33", "values": [{"measurement": "luciferase (luminescent) signals of Rac1-FLuc or DvL2-FLuc reporter cells", "setting": "[1]", "value": "significantly inhibited; also recorded: dose-dependently inhibited"}, {"measurement": "luciferase activity", "setting": "[1]; sgCTL 293T cells with normal endogenous DDX3, RK-33 0.5, 1 or 2 μM, 3 h pre-treatment", "value": "dose-dependent reduction in luciferase activity"}, {"measurement": "luciferase activity (response to inhibitor)", "setting": "[1]; sgDDX3X (DDX3X knock-out) 293T cells expressing Rac1-FLuc or DvL2-FLuc construct, RK-33 0.5, 1 or 2 μM", "value": "did not respond"}, {"measurement": "induction of apoptosis/cell death", "setting": "[2]", "value": "no major change in cell viability or induction of apoptosis/cell death"}, {"measurement": "cell viability", "setting": "[3]", "value": "no major change in cell viability"}]}]}
